Measured values as given in EP2794556B1, “BIS-(ARYL/HETEROARYL)-METHYLENE COMPOUNDS, PHARMACEUTICAL COMPOSITIONS CONTAINING SAME AND THEIR USE FOR TREATING CANCER” (Gleason, James L., priority 2011, dated 2013).

Legend:
PC-3 = experiment: NCI 60 cell panel
TK-10 = experiment: NCI 60 cell panel
HCC-2998 = experiment: NCI 60 cell panel
SN12C = experiment: NCI 60 cell panel
SF-268 = experiment: NCI 60 cell panel
MDA-MB-468 = experiment: NCI 60 cell panel
NCI-H322M = experiment: NCI 60 cell panel
SW-620 = experiment: NCI 60 cell panel
HOP-62 = experiment: NCI 60 cell panel
SCC25 cells = experiment: EdU cell growth assay
Procedure: EdU cell growth assay. Click-iT EdU Alexa Fluor high-throughput imaging (HCS) assay for cell proliferation. HCS assays were performed on AT84 mouse squamous carcinoma cell line (ATCC) following the manufacturer's instruction (Molecular Probes, Invitrogen). […] All samples were in triplicate.

KM12 = experiment: NCI 60 cell panel
MCF7 = experiment: NCI 60 cell panel
[1] = test system: 60 cell panel of human carcinoma cell lines; experiment: NCI 60 cell panel, summary in text; type: cell-based
CCRF-CEM = experiment: NCI 60 cell panel
OVCAR-4 = experiment: NCI 60 cell panel
MOLT-4 = experiment: NCI 60 cell panel
OVCAR-8 = experiment: NCI 60 cell panel
HCT-116 = experiment: NCI 60 cell panel
SNB-19 = experiment: NCI 60 cell panel

`CCC(CC)(c1ccc(OCC(=O)NO)c(C)c1)c1ccc(OCC(O)C(C)(C)C)c(C)c1` (racemic) [JF-B01, N-Hydroxy-2-(4-(3-(4-(2-hydroxy-3,3-dimethylbutoxy)-3-methylphenyl)pentan-3-yl)-2-methylphenoxy)acetamide] was tested, and the GI50 (PC-3; Homo sapiens, PC-3) was 3.04 µM, the CC50 (PC-3; Homo sapiens, PC-3, read-out: LC50) was 41.8 µM and the TGI (PC-3; Prostate Cancer, PC-3) was 1.23E-5. The GI50 (TK-10; Homo sapiens, TK-10) was 2.83 µM, the CC50 (TK-10; Homo sapiens, TK-10, read-out: LC50) was 42.8 µM and the TGI (TK-10; Renal Cancer, TK-10) was 1.60E-5. For the same compound, the TGI (HCC-2998; Colon Cancer, HCC-2998) was 1.55E-5, the GI50 (HCC-2998; Homo sapiens, HCC 2998) was 4.23 µM and the CC50 (HCC-2998; Homo sapiens, HCC 2998, read-out: LC50) was 41.2 µM. It also gave a GI50 (SN12C; Homo sapiens) of 3.87 µM, a CC50 (SN12C; Homo sapiens, read-out: LC50) of 40.3 µM and a TGI (SN12C; Renal Cancer) of 1.59E-5. It also gave a TGI (SF-268; CNS Cancer, SF-268) of 1.06E-5, a GI50 (SF-268; Homo sapiens, SF-268) of 2.26 µM and a CC50 (SF-268; Homo sapiens, SF-268, read-out: LC50) of 34.6 µM. For the same compound, the TGI (MDA-MB-468; Breast Cancer, MDA-MB-468) was 3.53E-6, the GI50 (MDA-MB-468; Homo sapiens, MDA-MB-468) was 1.57 µM and the CC50 (MDA-MB-468; Homo sapiens, MDA-MB-468, read-out: LC50) was 7.92 µM. The GI50 (NCI-H322M; Homo sapiens) was 2.86 µM, the CC50 (NCI-H322M; Homo sapiens, read-out: LC50) was 33 µM and the TGI (NCI-H322M; Non-Small Cell Lung Cancer) was 1.08E-5. The TGI (SW-620; Colon Cancer, SW-620) was 1.25E-5, the GI50 (SW-620; Homo sapiens, SW-620) was 2.3 µM and the CC50 (SW-620; Homo sapiens, SW-620, read-out: LC50) was 35.4 µM. It also gave a GI50 (HOP-62; Homo sapiens, HOP-62) of 3.69 µM, a CC50 (HOP-62; Homo sapiens, HOP-62, read-out: LC50) of 38.3 µM and a TGI (HOP-62; Non-Small Cell Lung Cancer, HOP-62) of 1.47E-5. The “antiproliferative potency, fold less potent than 1,25D” value (SCC25 cells) was 10 fold, the “EdU incorporation at higher concentrations” value (SCC25 cells; higher concentrations) was “completely abolished EdU incorporation” and the TGI (KM12; Colon Cancer, KM12) was 8.17E-6. The GI50 (KM12; Homo sapiens, KM12) was 2.15 µM, the CC50 (KM12; Homo sapiens, KM12, read-out: LC50) was 28.8 µM and the TGI (MCF7; Breast Cancer, MCF7) was 2.70E-6. The GI50 (MCF7; Homo sapiens, MCF7) was 0.333 µM, the CC50 (MCF7; Homo sapiens, MCF7, read-out: LC50) was 12.8 µM and the antiproliferative activity ([1]; all cell lines of the panel) was “antiproliferative activity in all cell lines”. The full growth inhibition ([1]; melanoma cell lines, 8 out of 9 cell lines) was no more than 7 µM, the GI50 (CCRF-CEM; Homo sapiens) was 0.576 µM and the CC50 (CCRF-CEM; Homo sapiens, read-out: LC50) was 42.2 µM. The TGI (CCRF-CEM; Leukemia) was 4.80E-6, the GI50 (OVCAR-4; Homo sapiens, OVCAR-4) was 1.88 µM and the CC50 (OVCAR-4; Homo sapiens, OVCAR-4, read-out: LC50) was 32 µM. The TGI (OVCAR-4; Ovarian Cancer, OVCAR-4) was 9.44E-6, the GI50 (MOLT-4; Homo sapiens, MOLT-4) was 1.15 µM and the CC50 (MOLT-4; Homo sapiens, MOLT-4, read-out: LC50) was 40.9 µM. It also gave a TGI (MOLT-4; Leukemia, MOLT-4) of 4.60E-6, a GI50 (OVCAR-8; Homo sapiens, OVCAR-8) of 6.27 µM and a CC50 (OVCAR-8; Homo sapiens, OVCAR-8, read-out: LC50) of 51.1 µM. The TGI (OVCAR-8; Ovarian Cancer, OVCAR-8) was 2.03E-5, the TGI (HCT-116; Colon Cancer, HCT-116) was 1.09E-5 and the GI50 (HCT-116; Homo sapiens, HCT-116) was 2.13 µM. It also gave a CC50 (HCT-116; Homo sapiens, HCT-116, read-out: LC50) of 33.4 µM, a TGI (SNB-19; CNS Cancer, SNB-19) of 1.12E-5 and a GI50 (SNB-19; Homo sapiens, SNB-19) of 2.41 µM. It also gave a CC50 (SNB-19; Homo sapiens, SNB-19, read-out: LC50) of 33.5 µM.
